# According to patent US20110230552A1, “USE OF DRONEDARONE FOR THE PREPARATION OF A MEDICAMENT FOR THE PREVENTION OF STROKE OR TRANSIENT ISCHEMIC ATTACK” (SANOFI-AVENTIS, priority 2008, published 2011):
# Where a name gives a salt, the structure may show the parent alone. Read-outs that look alike come from different tables or passages of the source.
# How the values were obtained:
# [1] = tested on: patients with a history of atrial fibrillation or atrial flutter; assay: Prospective, multinational, double-blind, randomized, placebo-controlled, parallel group trial (ATHENA) of dronedarone hydrochloride for prevention of stroke; format: in vivo, human
# Method: Efficacy of dronedarone and its pharmaceutically acceptable salts versus placebo for the prevention of stroke was provided via dronedarone hydrochloride during a prospective, multinational, double-blind, randomized, multi-center, placebo-controlled, parallel group trial.
# Eligible patients have a history of atrial fibrillation or atrial flutter and/or may be in normal sinus rhythm or in atrial fibrillation or flutter at the time of recruitment. Recruitment of patients was conducted taking into account the following inclusion criteria:
# 1) One of the following risk factors had to be present: • age equal to or greater than 70 years, • hypertension (taking antihypertensives of at least two different classes), • diabetes, • history of cerebral stroke (transient ischemic event or completed cerebral stroke) or of systemic embolism, • left atrial diameter greater than or equal to 50 mm measured by echocardiography, • left ventricular ejection fraction less than 40%, measured by two-dimensional echography; or • age equal to or above 70, or even above 75, possibly combined with at least one of the risk factors below: • hypertension (taking antihypertensives of at least two different classes), • diabetes, • history of cerebral stroke (transient ischemic event or completed cerebral stroke) or of systemic embolism, • left atrial diameter greater than or equal to 50 mm measured by echocardiography, • left ventricular ejection fraction less than 40%, measured by two-dimensional echography;
# 2) availability of one electrocardiogram within the last six months, showing that the patients was or is in atrial fibrillation/flutter,
# 3) availability of one electrocardiogram within the last six months, showing that the patients was or is in sinus rhythm.
# Study drug treatment units (placebo or dronedarone hydrochloride corresponding to 400 mg of base) were such that each patient took one tablet in the morning during or shortly after breakfast and one tablet in the evening during or shortly after dinner.
# The treatment duration depended on the time of recruitment of each patient in the trial and could be comprised from 12 months to 30 months.
# Results were calculated using non-parametric Kaplan-Meier estimate.
# Cox's proportional hazard model was used to estimate the hazard ratio also called relative risk.
# Relative risk (RR) is the ratio between the risk of having a stroke (or transient ischemic attack (TIA)) for patients treated with dronedarone and the risk of having a stroke (or transient ischemic attack (TIA)) for patients treated with placebo.
# Percentage of decrease of an event is calculated as follow: […]
# [2] = tested on: patients with persistent atrial fibrillation; conditions: SAFE-T trial, cited from earlier work; for increasing the time to a recurrence of atrial fibrillation, versus placebo / effectiveness in increasing time to recurrence of atrial fibrillation relative to sotalol: P<0.001; for number of strokes per 100 patient-years of follow-up: calculated from page 1866 of Singh et al., placebo 1.91
# [3] = on-treatment analysis of 30 months
# [4] = versus placebo, Cox's proportional hazard model
smiles,measurement,setting,value
"CCCCc1oc2ccc(NS(C)(=O)=O)cc2c1C(=O)c1ccc(OCCCN(CCCC)CCCC)cc1 [dronedarone hydrochloride, 2-n-butyl-3-[4-(3-di-n-butylaminopropoxy)benzoyl]-5-méthylsulfonamido-benzofuranne]",fatal stroke events reported,"[1]; 2301 of 4628 patients on drug, 400 mg base twice daily, 12 to 30 months, placebo group 18 events",11
same,ischemic stroke events reported,"[1]; 2301 of 4628 patients on drug, 400 mg base twice daily, 12 to 30 months, placebo group 49 events",33
same,stroke events reported,"[1]; 2301 of 4628 patients on drug, 400 mg base twice daily, 12 to 30 months, placebo group 70 events",45
same,stroke or TIA events reported,"[1]; 2301 of 4628 patients on drug, 400 mg base twice daily, 12 to 30 months, placebo group 80 events",52
same,ACS events reported (cardiovascular hospitalization for Acute Coronary Syndrome),"[1]; 2301 of 4628 patients on drug, 400 mg base twice daily, 12 to 30 months, placebo group 89 events",62
same,"stroke, Acute Coronary Syndrome (ACS) or cardiovascular death events reported","[1]; 2301 of 4628 patients on drug, 400 mg base twice daily, 12 to 30 months, placebo group 216 events",147
same,"stroke, Acute Coronary Syndrome (ACS) or death events reported","[1]; 2301 of 4628 patients on drug, 400 mg base twice daily, 12 to 30 months, placebo group 262 events",196
same,"time course of effect on first stroke (FIG. 2, Kaplan Meier cumulative incidence curves)",[1]; [3],occurred early and increased over time
same,"time course of effect on first stroke or TIA (FIG. 1, Kaplan Meier cumulative incidence curves)",[1]; [3],occurred early and increased over time
same,relative risk of cardiovascular hospitalization for Acute Coronary Syndrome,[1]; [4],0.70
same,relative risk of fatal stroke,[1]; [4],0.62
same,relative risk of ischemic stroke,[1]; [4],0.68
same,relative risk of stroke,[1]; [4],0.65
same,relative risk of stroke or TIA,[1]; [4],0.65
same,"relative risk of stroke, Acute Coronary Syndrome (ACS) or cardiovascular death",[1]; [4],0.68
same,decrease of the relative risk of cardiovascular hospitalization for Acute Coronary Syndrome,"[1]; versus placebo, x=1-RR",30%
same,decrease of the relative risk of fatal stroke,"[1]; versus placebo, x=1-RR",38%
same,decrease of the relative risk of ischemic stroke,"[1]; versus placebo, x=1-RR",32%
same,decrease of the relative risk of stroke,"[1]; versus placebo, x=1-RR",35%
same,decrease of the relative risk of stroke or TIA,"[1]; versus placebo, x=1-RR",35%
same,"decrease of the relative risk of stroke, Acute Coronary Syndrome (ACS) or cardiovascular death","[1]; versus placebo, x=1-RR",32%
same,"decrease of the relative risk of stroke, Acute Coronary Syndrome (ACS) or death","[1]; versus placebo, x=1-RR",25%
CCCCc1oc2ccccc2c1C(=O)c1cc(I)c(OCCN(CC)CC)c(I)c1 [amiodarone],"increasing the time to a recurrence of atrial fibrillation, versus placebo",[2],significantly more effective than placebo
same,effectiveness in increasing time to recurrence of atrial fibrillation relative to sotalol,[2]; analysis according to the treatment actually received,four times as effective
same,number of strokes per 100 patient-years of follow-up,[2],2.06 per 100 patient-years
same,effectiveness in increasing time to recurrence of atrial fibrillation relative to sotalol,[2]; intention-to-treat analysis,six times as effective as sotalol
CC(C)NCC(O)c1ccc(NS(C)(=O)=O)cc1 (stereo not shown) [sotalol],"increasing the time to a recurrence of atrial fibrillation, versus placebo",[2],significantly more effective than placebo
same,number of strokes per 100 patient-years of follow-up,[2],2.71 per 100 patient-years
